Source: publication PMC12217109, “Development of novel benzamide class I selective lysine deacetylase inhibitors as potent anticancer agents” (Journal of Enzyme Inhibition and Medicinal Chemistry, 2025)
Where two headings read alike, the source gives them in different places.

Columns and labels:
[1] = system: A2780 ovarian cancer cell line; experiment: MTT cellular viability assay, A2780; format: cell-based; conditions: Homo sapiens
[2] = system: 786-0; experiment: NCI-60 cytotoxicity screen; format: cell-based; conditions: Homo sapiens, NCI-60, 48 h, renal
Excerpt: (§1) Compounds 3–7 were submitted to the US National Cancer Institute (NIH, Bethesda, Maryland) for screening against the NCI-60 panel of human cancer cell lines, as per standard protocol.

[3] = system: A549; experiment: NCI-60 cytotoxicity screen; format: cell-based; conditions: Homo sapiens, NCI-60, 48 h, NSCLC
Excerpt: as §1

[4] = system: ACHN; experiment: NCI-60 cytotoxicity screen; format: cell-based; conditions: Homo sapiens, NCI-60, 48 h, renal
Excerpt: as §1

[5] = system: BT 549; experiment: NCI-60 cytotoxicity screen; format: cell-based; conditions: Homo sapiens, NCI-60, 48 h, breast
Excerpt: as §1

[6] = system: CAKI-1; experiment: NCI-60 cytotoxicity screen; format: cell-based; conditions: Homo sapiens, NCI-60, 48 h, renal
Excerpt: as §1

[7] = system: COLO205; experiment: NCI-60 cytotoxicity screen; format: cell-based; conditions: Homo sapiens, COLO 205; NCI-60, 48 h, colon
Excerpt: as §1

[8] = system: DU-145; experiment: NCI-60 cytotoxicity screen; format: cell-based; conditions: Homo sapiens, NCI-60, 48 h, prostate
Excerpt: as §1

[9] = system: EKVX; experiment: NCI-60 cytotoxicity screen; format: cell-based; conditions: Homo sapiens, NCI-60, 48 h, NSCLC
Excerpt: as §1

[10] = system: H23; experiment: NCI-60 cytotoxicity screen; format: cell-based; conditions: Homo sapiens, NCI-60, 48 h, NSCLC
Excerpt: as §1

[11] = system: H460; experiment: NCI-60 cytotoxicity screen; format: cell-based; conditions: Homo sapiens, NCI-60, 48 h, NSCLC
Excerpt: as §1

[12] = system: H522; experiment: NCI-60 cytotoxicity screen; format: cell-based; conditions: Homo sapiens, NCI-60, 48 h, NSCLC
Excerpt: as §1

[13] = system: HCT116; experiment: NCI-60 cytotoxicity screen; format: cell-based; conditions: Homo sapiens, HCT-116; NCI-60, 48 h, colon
Excerpt: as §1

[14] = system: HCT15; experiment: NCI-60 cytotoxicity screen; format: cell-based; conditions: Homo sapiens, HCT-15; NCI-60, 48 h, colon
Excerpt: as §1

[15] = system: HL-60; experiment: NCI-60 cytotoxicity screen; format: cell-based; conditions: Homo sapiens, NCI-60, 48 h, leukaemia
Excerpt: as §1

[16] = system: HOP-62; experiment: NCI-60 cytotoxicity screen; format: cell-based; conditions: Homo sapiens, NCI-60, 48 h, NSCLC
Excerpt: as §1

[17] = system: HS 578 T; experiment: NCI-60 cytotoxicity screen; format: cell-based; conditions: Homo sapiens, NCI-60, 48 h, breast
Excerpt: as §1

[18] = system: IGROV-1; experiment: NCI-60 cytotoxicity screen; format: cell-based; conditions: Homo sapiens, NCI-60, 48 h, ovarian
Excerpt: as §1

[19] = system: KM12; experiment: NCI-60 cytotoxicity screen; format: cell-based; conditions: Homo sapiens, NCI-60, 48 h, colon
Excerpt: as §1

[20] = system: LOX IMVI; experiment: NCI-60 cytotoxicity screen; format: cell-based; conditions: Homo sapiens, NCI-60, 48 h, melanoma
Excerpt: as §1

[21] = system: M14; experiment: NCI-60 cytotoxicity screen; format: cell-based; conditions: Homo sapiens, NCI-60, 48 h, melanoma
Excerpt: as §1

[22] = system: MCF-7; experiment: NCI-60 cytotoxicity screen; format: cell-based; conditions: Homo sapiens, MCF7; NCI-60, 48 h, breast
Excerpt: as §1

[23] = system: MDA-MB-435; experiment: NCI-60 cytotoxicity screen; format: cell-based; conditions: Homo sapiens, NCI-60, 48 h, melanoma
Excerpt: as §1

[24] = system: NCI/ADR-RES; experiment: NCI-60 cytotoxicity screen; format: cell-based; conditions: Homo sapiens, NCI-60, 48 h, ovarian
Excerpt: as §1

[25] = system: OVCAR-3; experiment: NCI-60 cytotoxicity screen; format: cell-based; conditions: Homo sapiens, NCI-60, 48 h, ovarian
Excerpt: as §1

[26] = system: OVCAR-4; experiment: NCI-60 cytotoxicity screen; format: cell-based; conditions: Homo sapiens, NCI-60, 48 h, ovarian
Excerpt: as §1

[27] = system: OVCAR-8; experiment: NCI-60 cytotoxicity screen; format: cell-based; conditions: Homo sapiens, NCI-60, 48 h, ovarian
Excerpt: as §1

[28] = system: PC-3; experiment: NCI-60 cytotoxicity screen; format: cell-based; conditions: Homo sapiens, NCI-60, 48 h, prostate
Excerpt: as §1

[29] = system: RPMI-8226; experiment: NCI-60 cytotoxicity screen; format: cell-based; conditions: Homo sapiens, NCI-60, 48 h, leukaemia
Excerpt: as §1

[30] = system: RXF 393; experiment: NCI-60 cytotoxicity screen; format: cell-based; conditions: Homo sapiens, NCI-60, 48 h, renal
Excerpt: as §1

[31] = system: SF-268; experiment: NCI-60 cytotoxicity screen; format: cell-based; conditions: Homo sapiens, NCI-60, 48 h, CNS
Excerpt: as §1

[32] = system: SF-295; experiment: NCI-60 cytotoxicity screen; format: cell-based; conditions: Homo sapiens, NCI-60, 48 h, CNS
Excerpt: as §1

[33] = system: SF-539; experiment: NCI-60 cytotoxicity screen; format: cell-based; conditions: Homo sapiens, NCI-60, 48 h, CNS
Excerpt: as §1

[34] = system: SK-MEL-28; experiment: NCI-60 cytotoxicity screen; format: cell-based; conditions: Homo sapiens, NCI-60, 48 h, melanoma
Excerpt: as §1

[35] = system: SK-MEL-2; experiment: NCI-60 cytotoxicity screen; format: cell-based; conditions: Homo sapiens, NCI-60, 48 h, melanoma
Excerpt: as §1

[36] = system: SK-MEL-5; experiment: NCI-60 cytotoxicity screen; format: cell-based; conditions: Homo sapiens, NCI-60, 48 h, melanoma
Excerpt: as §1

[37] = system: SN12C; experiment: NCI-60 cytotoxicity screen; format: cell-based; conditions: Homo sapiens, NCI-60, 48 h, renal
Excerpt: as §1

[38] = system: SNB-19; experiment: NCI-60 cytotoxicity screen; format: cell-based; conditions: Homo sapiens, NCI-60, 48 h, CNS
Excerpt: as §1

[39] = system: SNB-75; experiment: NCI-60 cytotoxicity screen; format: cell-based; conditions: Homo sapiens, NCI-60, 48 h, CNS
Excerpt: as §1

[40] = system: SR; experiment: NCI-60 cytotoxicity screen; format: cell-based; conditions: Homo sapiens, NCI-60, 48 h, leukaemia
Excerpt: as §1

[41] = system: SW620; experiment: NCI-60 cytotoxicity screen; format: cell-based; conditions: Homo sapiens, SW-620; NCI-60, 48 h, colon
Excerpt: as §1

[42] = system: U251; experiment: NCI-60 cytotoxicity screen; format: cell-based; conditions: Homo sapiens, U-251; NCI-60, 48 h, CNS
Excerpt: as §1

[43] = system: UACC-62; experiment: NCI-60 cytotoxicity screen; format: cell-based; conditions: Homo sapiens, NCI-60, 48 h, melanoma
Excerpt: as §1

[44] = system: UO-31; experiment: NCI-60 cytotoxicity screen; format: cell-based; conditions: Homo sapiens, NCI-60, 48 h, renal
Excerpt: as §1

[45] = system: H322M; experiment: NCI-60 cytotoxicity screen; format: cell-based, human; conditions: for IC50: Homo sapiens, NCI-H322M, NCI-60, 48 h, NSCLC
Excerpt: as §1

[46] = system: TK-10; experiment: NCI-60 cytotoxicity screen; format: cell-based, human; conditions: for IC50: Homo sapiens, TK-10, NCI-60, 48 h, renal
Excerpt: as §1

[47] = system: UACC-257; experiment: NCI-60 cytotoxicity screen; format: cell-based, human; conditions: for IC50: Homo sapiens, UACC-257, NCI-60, 48 h, melanoma
Excerpt: as §1

[48] = A2780, MTT, 96 h, read-out: A2780 IC50
[49] = listed as A2780* of Table 4, ovarian, values as in Tables 1 and 2 (MTT), read-out: A2780* cytotoxicity IC50

In the case of `C=C(CN1CCN(c2cccc(C(F)(F)F)c2)CC1)c1ccc(C(=O)Nc2ccccc2N)cc1` [Compound 4, N-(2-aminophenyl)-4–(3-(4–(3-(trifluoromethyl)phenyl)piperazin-1-yl)prop-1-en-2-yl)benzamide], the IC50 [1, 48] is reported as 1600 ± 500 nM, the IC50 [1, 49] is reported as 1600 nM and the IC50 [2] is reported as 1100 nM. The IC50 [3] was 1.48 µM, the IC50 [4] was 0.92 µM and the IC50 [5] was 0.33 µM. It also gave an IC50 [6] of 0.63 µM, an IC50 [7] of 3.45 µM and an IC50 [8] of 1.36 µM. For the same compound, the IC50 [9] was 2.92 µM, the IC50 [10] was 3.72 µM and the IC50 [11] was 1560 nM. For the same compound, the IC50 [12] was 6.14 µM, the IC50 [13] was 1.14 µM and the IC50 [14] was 480 nM. It also gave an IC50 [15] of 120 nM, an IC50 [16] of 0.7 µM and an IC50 [17] of 0.49 µM. The IC50 [18] was 14.2 µM, the IC50 [19] was 0.49 µM and the IC50 [20] was 0.12 µM. For the same compound, the IC50 [21] was 1.05 µM, the IC50 [22] was 1.24 µM and the IC50 [23] was 0.14 µM. It also gave an IC50 [24] of 110 nM, an IC50 [25] of 0.55 µM and an IC50 [26] of 3.94 µM. For the same compound, the IC50 [27] was 1.4 µM, the IC50 [28] was 620 nM and the IC50 [29] was 320 nM. For the same compound, the IC50 [30] was 1620 nM, the IC50 [31] was 1.43 µM and the IC50 [32] was 0.54 µM. The IC50 [33] was 0.54 µM, the IC50 [34] was 3.4 µM and the IC50 [35] was 3.44 µM. For the same compound, the IC50 [36] was 570 nM, the IC50 [37] was 0.29 µM and the IC50 [38] was 4.1 µM. It also gave an IC50 [39] of 0.01 µM, an IC50 [40] of 20 nM and an IC50 [41] of 1.28 µM. It also gave an IC50 [42] of 1.17 µM, an IC50 [43] of 0.41 µM and an IC50 [44] of 2390 nM. The “fold improvement in cytotoxicity sensitivity compared to 7, H322M” value ([45]; H322M NSCLC) was “approximately 100 fold”, the IC50 [45] was 0.94 µM and the IC50 [46] was 0.81 µM. The “fold improvement in cytotoxicity sensitivity compared to 7, TK-10” value ([46]; TK-10 renal) was roughly 20 fold, the IC50 [47] was 760 nM and the “fold improvement in cytotoxicity sensitivity compared to 7, UACC-257” value ([47]; UACC-257 melanoma) was roughly 35 fold.
With `C=C(CN1CCN(c2ccc(C(F)(F)F)cc2)CC1)c1ccc(C(=O)Nc2ccccc2N)cc1` [Compound 5, N-(2-aminophenyl)-4–(3-(4–(4-(trifluoromethyl)phenyl)piperazin-1-yl)prop-1-en-2-yl)benzamide] the IC50 [1, 48] was 1900 ± 400 nM, the IC50 [1, 49] was 1900 nM and the IC50 [2] was 2850 nM. The IC50 [3] was 6.43 µM, the IC50 [4] was 9.64 µM and the IC50 [5] was 6.92 µM. The IC50 [6] was 6.08 µM, the IC50 [7] was greater than 100 µM and the IC50 [8] was 21 µM. The IC50 [9] was 12.4 µM, the IC50 [10] was 9.48 µM and the IC50 [11] was 3440 nM. It also gave an IC50 [12] of 1.85 µM, an IC50 [13] of 11.4 µM and an IC50 [14] greater than 100000 nM. For the same compound, the IC50 [15] was 80 nM, the IC50 [16] was 8.38 µM and the IC50 [17] was 22.5 µM. It also gave an IC50 [18] of 18.2 µM, an IC50 [19] of 7.64 µM and an IC50 [20] of 11.1 µM. It also gave an IC50 [21] of 90.6 µM, an IC50 [22] of 10.9 µM and an IC50 [23] of 25.2 µM. The IC50 [24] was 3370 nM, the IC50 [25] was 12 µM and the IC50 [26] was 5.68 µM. It also gave an IC50 [27] of 6.95 µM, an IC50 [28] of 1290 nM and an IC50 [29] of 400 nM. The IC50 [30] was 1970 nM, the IC50 [31] was 6.78 µM and the IC50 [32] was 10.8 µM. For the same compound, the IC50 [33] was 8.15 µM, the IC50 [34] was greater than 100 µM and the IC50 [35] was greater than 100 µM. It also gave an IC50 [36] of 4430 nM, an IC50 [37] of 6.37 µM and an IC50 [38] of 12.6 µM. It also gave an IC50 [39] of 12.5 µM, an IC50 [40] of 1100 nM and an IC50 [41] of 78.9 µM. It also gave an IC50 [42] of 6.25 µM, an IC50 [43] of 23 µM and an IC50 [44] of 970 nM. It also gave an IC50 [45] of 40.5 µM, an IC50 [46] of 21 µM and an IC50 [47] of 2390 nM.
